Test results as given in US20100279935A1, “COMPOSITIONS FOR INDUCING LABOR AND ASSOCIATED METHODS” (priority 2007, published 2010).
Entries after “also recorded” stand apart in the source; their conditions may differ.

Tests used:
Assay type in all cases: cell-based, human
[1] = test system: myosin light chain phosphorylation (Ser19) in hTERT cells; experiment: Western blot for phosphorylated myosin light chain at Ser19
Protocol: (§1) Telomerase immortalized myometrial cells (hTert) were maintained in DMEM/F12 (Mediatech) medium with 10% FBS (Hyclone) with penicillin/streptomycin and gentamycin at 37° C. and 5% CO2. Cells were trypsinized at 90% confluency and plated in T175 cell culture flasks at a 1:5 dilution or 6 well plates at 20,000 cells per well. For pharmacological experiments cells were treated with iodo-melatonin (Tocris; USA), oxytocin (Sigma-Aldrich; USA) or cotreated as described in the Results. Pharmacological inhibitors, 4-phenyl-2-propionamidotetralin (4P-PDOT), a MT2R specific antagonist, the general PKC inhibitor C1, and the phospholipase C inhibitor, U73122 (all from Tocris) were applied as a pretreatment 1 hr prior to application of IMEL or OT. After treatment the cells were trypsinized, pelleted, washed in phosphate-buffered saline, and frozen at −20° C. until further analysis.
For in vitro investigations cultured hTERT cells were collected by trypsinization and gentle scraping. Cells were suspended in PBS and pelleted by centrifugation. Protein extraction was performed according to the method of Shearman and colleagues^15. Following electrophoretic separation on a 10% SDS-polyacrylamide gel, proteins were semi-dry blotted in buffer onto a Whatman PROTRAN Nitrocellulose membrane (Whatman; Germany). Molecular size markers (Amersham) were included. The membrane was incubated for 60 min at 20° C. in blocking buffer containing 5% milk powder before overnight incubation at 4° C. with anti-OTR, anti-MT2R (Santa Cruz Biotechnology), anti-Cx43 antiserum (Millipore) or anti-actin (Sigma) at a dilution of 1:1000 in blocking buffer. Following washing in buffer (20 mM Tris, pH 7.6+[…] NaCl+0.05% Tween-20), the membrane was incubated at 20° C. for 1 h with a peroxidase-conjugated affinity purified goat anti-rabbit immunoglobulin (Sigma) in a 1:2000 dilution. Chemiluminescent signals were then detected with the Pierce ECL Western Blotting Substrate (Pierce; USA) using CL-X Posure film (Pierce). Western blotting for phospho-myosin light chain kinase (Ser19) (Millipore) was performed with the following exceptions. Membranes were blocked with a 5% BSA/TBS solution for one hour. The primary antibody was diluted in TBS at a 1:500 dilution at 4° C. overnight with shaking. The goat anti-rabbit immunoglobulin was diluted 1:2000 in a 5% milk/TBST solution. Densitometric analysis was performed using AIS Image Analysis software (Ontario, Canada) of images acquired with a digital camera. Criterion for assessment of samples as immunonegative was the absence of a band after 1 hr of exposure. Western blots were repeated a minimum of three times to insure reproducibility.

[2] = test system: hTERT myometrial smooth muscle cells; experiment: Myometrial cell contractility assay (collagen disk retraction); conditions: for effect of inhibitor on contractility of cells treated with OT, I-MEL or both: pretreatment 1 hr, 4P-PDOT 10 nM, C1 10 μM, U73122 concentration not given
Protocol: as §1
Myometrial cell contractility was assayed using a collagen disk retraction assay as described by Devost and Zingg^16 plating 10,000 hTERT cells per well. Samples were treated as described in the Results and each treatment was performed in triplicate. Myometrial cell contractility was quantified by capturing images of the fixed collagen disks with a digital camera and analyzing for total area using AIS Image Analysis Software (Ontario, Canada). The results were normalized to the cell-free control sample areas and expressed as a percentage of untreated control area.

[3] = test system: connexin 43 mRNA in hTERT cells; experiment: Quantitative PCR of Cx43 mRNA; conditions: for effect of inhibitor on I-MEL-induced Cx43 expression: co-treatment with I-MEL (FIG. 3C)
Protocol: as §1
Cellular total RNA was extracted with the RNEasy® kit (QIAGEN; Valencia, Calif., USA) according to the manufacturer's protocol. The RNA concentration was measured with the Nanodrop® photometer and then reverse transcribed to cDNA by means of the iScript® reverse transcription system (Bio-Rad Laboratories; USA). Quantitative real-time PCR was performed on a Bio-Rad iCycler® using iQ SYBR Green Supermix® (Bio-Rad), together with 1 μl of sense and antisense primers ([…]) of the transcript of interest and 2 μl of template cDNA. The following thermal cycling parameters were used: initial heat activation of the DNA-polymerase was performed at 95° C. for 5 min. Thereafter 40 cycles at 95° C. (15 sec), 58° C. (30 sec), and 72° C. (30 sec) were run. After thermocycling the iCycler performs an automatic melting curve, which entails cooling to 55° C. for 10 sec and then increasing temperatures in 0.2° C. increments up to 90° C. This controls for primer-dimer formation and other nonspecific effects. Quantification of the data was achieved by the Bio-Rad iCycler software using a standard curve from a primer-specific dilution series for the PCR product. Data were normalized against expression of the housekeeping gene glyceraldehyde-3-phosphate dehydrogenase (GAPDH). The primer sequences used for Cx43, and GAPDH quantification are as follows: […]

[4] = test system: connexin 43 protein in hTERT cells; experiment: Western blot of Cx43 protein; conditions: I-MEL-treated hTERT cells (FIG. 3B)
Protocol: as §1
For in vitro investigations cultured hTERT cells were collected by trypsinization and gentle scraping. Cells were suspended in PBS and pelleted by centrifugation. Protein extraction was performed according to the method of Shearman and colleagues^15. […] Chemiluminescent signals were then detected with the Pierce ECL Western Blotting Substrate (Pierce; USA) using CL-X Posure film (Pierce). […]

[5] = test system: gap junction communication in hTERT cells; experiment: Lucifer yellow dye migration (scrape loading) assay
Protocol: Lucifer yellow scrape loading assays were performed in accordance with the procedures of El-Fouly et al^17. Cells were grown to confluency in […] cell culture dishes, washed with warm phosphate buffered saline (PBS) and treated with 2 mL of pre-warmed 0.05% lucifer yellow in PBS solution. The cells were then scraped by drawing a scalpel across the plate. After two minutes at room temperature the plates were washed three times with prewarmed PBS and returned to normal medium. The plates were then photographed at 10 minutes after scraping using a digital camera through a Zeiss Axiovert 40CFL Microscope at a 100× and 200× magnification. Each treatment condition was repeated three times to ensure reproducibility.

SMILES: CC[C@H](C)[C@@H]1NC(=O)[C@H](Cc2ccc(O)cc2)NC(=O)[C@@H](N)CSSC[C@@H](C(=O)N2CCC[C@H]2C(=O)N[C@@H](CC(C)C)C(=O)NCC(N)=O)NC(=O)[C@H](CC(N)=O)NC(=O)[C@H](CCC(N)=O)NC1=O [OT, oxytocin]
- myosin light chain phosphorylation, OT treatment ([1]; OT, hTERT cells (FIG. 2D)): increases

SMILES: COc1ccc2c(c1)CC[C@@H]1[C@@H]2CC[C@]2(C)[C@@H](NCCCCCCN3C(=O)C=CC3=O)CC[C@@H]12 [U73122]
- effect of inhibitor on contractility of cells treated with OT, I-MEL or both [2]: completely abolished contractility
- effect of inhibitor on I-MEL-induced Cx43 expression [3]: abolished the effect of I-MEL on Cx43 expression

SMILES: COc1ccc2[nH]c(I)c(CCNC(C)=O)c2c1 [I-MEL, iodo-melatonin]
- increase in contractility compared to treatment with OT alone ([2]; co-treatment 1 nM I-MEL and 1 nM OT, hTERT cells): two-fold
- contractility by I-MEL alone ([2]; hTERT cells, I-MEL without OT): modest increases in hTERT contractility
- effect of I-MEL on OT-induced contractility and sensitivity to OT ([2]; hTERT cells, OT co-treated with I-MEL (FIG. 2A)): increase OT-induced contractility in a dose dependent manner
- effect of I-MEL on OT-induced myosin light chain phosphorylation ([1]; 1 nM I-MEL with OT, hTERT cells (FIG. 2D)): increased dramatically
- myosin light chain phosphorylation, I-MEL treatment alone ([1]; 1 nM I-MEL, hTERT cells (FIG. 2D)): modest increases in myosin light chain phosphorylation
- Cx43 mRNA levels after 4 hrs ([3]; 1 nM I-MEL, 4 hrs, hTERT cells): significant, but transient increases; also recorded: elevated
- Cx43 mRNA levels after 8 hrs ([3]; 1 nM I-MEL, 8 hrs, hTERT cells): returned to untreated levels
- Cx43 protein levels [4]: upregulation of Cx43 protein levels
- cell coupling / spread of lucifer yellow dye ([5]; 1 nM I-MEL pretreated hTERT cells, 10 minutes after scrape loading): increased levels of cell coupling

SMILES: CCC(=O)NC1Cc2ccccc2C(c2ccccc2)C1 (centres unmarked) [4P-PDOT, 4-phenyl-2-propionamidotetralin]
- effect of inhibitor on contractility of cells treated with OT, I-MEL or both [2]: reduced the synergistic effect of I-MEL to levels corresponding to treatment with OT alone
- effect of inhibitor pretreatment on I-MEL-induced myosin light chain phosphorylation ([1]; 10 nM 4P-PDOT or 10 μM C1 pretreatment): abolished
- effect of inhibitor on I-MEL-induced Cx43 expression [3]: abolished the effect of I-MEL on Cx43 expression
- effect of inhibitor pretreatment on I-MEL-increased dye spread ([5]; 10 nM 4P-PDOT or 10 μM C1 before I-MEL): blocked
- dye migration, inhibitor alone ([5]; 4P-PDOT or C1 alone, data not shown): dye migration comparable to control levels
